In the assay the target is T1, sGC α1/β1 heterodimer stably expressed in CHO-K1 cell line (CHO-K1/sGC) (Homo sapiens, UniProt Q02108+Q02153).
T1 construct: expressed in transfected cells
T1 sequence (Q02108 1-690): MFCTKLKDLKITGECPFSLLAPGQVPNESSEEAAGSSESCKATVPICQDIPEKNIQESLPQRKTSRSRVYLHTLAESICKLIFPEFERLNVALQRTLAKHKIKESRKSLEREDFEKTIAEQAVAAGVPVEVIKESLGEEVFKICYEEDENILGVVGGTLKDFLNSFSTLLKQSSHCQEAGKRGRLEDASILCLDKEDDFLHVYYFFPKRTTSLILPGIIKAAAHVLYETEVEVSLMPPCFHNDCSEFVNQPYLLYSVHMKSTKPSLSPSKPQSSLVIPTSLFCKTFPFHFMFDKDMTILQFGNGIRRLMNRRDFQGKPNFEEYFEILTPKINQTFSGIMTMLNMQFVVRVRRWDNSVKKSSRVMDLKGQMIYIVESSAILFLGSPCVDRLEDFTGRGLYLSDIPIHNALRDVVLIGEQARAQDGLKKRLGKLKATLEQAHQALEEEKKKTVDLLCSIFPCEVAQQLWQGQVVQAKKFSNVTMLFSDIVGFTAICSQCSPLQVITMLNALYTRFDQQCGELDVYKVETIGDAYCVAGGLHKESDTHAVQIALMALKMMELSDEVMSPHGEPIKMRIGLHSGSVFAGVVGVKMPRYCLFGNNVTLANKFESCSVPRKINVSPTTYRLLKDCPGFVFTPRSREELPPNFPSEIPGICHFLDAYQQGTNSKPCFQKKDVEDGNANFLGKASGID
T1 sequence (Q02153 1-619): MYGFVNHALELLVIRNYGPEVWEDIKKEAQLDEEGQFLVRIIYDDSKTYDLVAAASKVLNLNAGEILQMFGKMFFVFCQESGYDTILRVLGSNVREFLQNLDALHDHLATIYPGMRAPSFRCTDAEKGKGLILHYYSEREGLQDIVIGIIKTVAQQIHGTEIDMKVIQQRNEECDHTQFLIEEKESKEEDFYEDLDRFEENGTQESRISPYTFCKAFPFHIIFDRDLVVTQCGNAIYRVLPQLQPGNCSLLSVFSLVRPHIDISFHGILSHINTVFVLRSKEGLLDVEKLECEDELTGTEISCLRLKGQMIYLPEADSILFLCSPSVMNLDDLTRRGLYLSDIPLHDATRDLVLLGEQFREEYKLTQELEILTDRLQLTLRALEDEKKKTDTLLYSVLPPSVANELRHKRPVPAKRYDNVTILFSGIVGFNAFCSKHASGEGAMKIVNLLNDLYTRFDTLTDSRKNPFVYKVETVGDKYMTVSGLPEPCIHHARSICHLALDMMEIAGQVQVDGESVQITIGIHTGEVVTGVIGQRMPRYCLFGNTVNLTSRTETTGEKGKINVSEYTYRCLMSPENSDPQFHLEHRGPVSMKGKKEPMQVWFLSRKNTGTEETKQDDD
In words: Cell-based sGC Functional Assay (CASA Assay), cGMP generation. To be noted: CHO-K1/sGC cells, 1 hr at 37° C., cGMP by HTRF, 4P fit; presence or absence of 1 μM DETA-NO not given; read-out: IP (nM) (inflection point). In short, it runs like this: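 CHO-K1 cells stably expressing human sGC α1/β1 (4×10^5/mL, 0.5 mM IBMX) were treated with compounds (2.5% DMSO final) ± 1 μM DETA-NO for 1 hr at 37° C. Intracellular cGMP measured by HTRF. Activity expressed as % of Compound A maximal cGMP; IP and maximum fold induction from 4P fit.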

Take `C[C@@]1(c2ccc(F)cc2)C(=O)Nc2nc(-c3cn4ncnc4c(CCC(F)(F)C(F)(F)F)n3)ncc21` [Example 172A, (S)-5-(4-fluorophenyl)-5-methyl-2-(8-(3,3,4,4,4-pentafluorobutyl)-[1,2,4]triazolo[1,5-a]pyrazin-6-yl)-5,7-dihydro-6H-pyrrolo[2,3-d]pyrimidin-6-one]: the EC50 was determined as 212 nM.
The value for `Nc1nc(-c2cn3ncnc3c(CCCC(F)(F)F)n2)nc2c1C(c1nnc(C3CC3)o1)(C1CC1)C(=O)N2` (centres unmarked) [Example 104A, 4-amino-5-cyclopropyl-5-(5-cyclopropyl-1,3,4-oxadiazol-2-yl)-2-(8-(4,4,4-trifluorobutyl)-[1,2,4]triazolo[1,5-a]pyrazin-6-yl)-5H-pyrrolo[2,3-d] pyrimidin-6(7H)-one] was 258 nM; that for `Cc1nc2c(CCC(F)(F)C(F)(F)F)nc(-c3nc(N)c4c(n3)NC(=O)C4(C)c3ccc(F)cn3)cn2n1` (centres unmarked) [Example 89B, 4-amino-5-(5-fluoropyridin-2-yl)-5-methyl-2-(2-methyl-8-(3,3,4,4,4-pentafluorobutyl)-[1,2,4]triazolo[1,5-a]pyrazin-6-yl)-5H-pyrrolo[2,3-d]pyrimidin-6(7H)-one] was 260 nM; that for `CC1(c2nnc(C3CC3)o2)C(=O)Nc2nc(-c3cn4ncnc4c(CCC(F)(F)C(F)(F)F)n3)nc(N)c21` (centres unmarked) [Example 98B, 4-amino-5-(5-cyclopropyl-1,3,4-oxadiazol-2-yl)-5-methyl-2-(8-(3,3,4,4,4-pentafluorobutyl)-[1,2,4]triazolo[1,5-a]pyrazin-6-yl)-5H-pyrrolo[2,3-d]pyrimidin-6(7H)-one] was 86.1 nM.
Next, `N#Cc1ccc(C2(C3CC3)C(=O)Nc3nc(-c4cn5ncnc5c(CCC(F)(F)C(F)(F)F)n4)nc(N)c32)nc1` (centres unmarked) [Example 118A, 6-(4-Amino-5-cyclopropyl-6-oxo-2-(8-(3,3,4,4,4-pentafluorobutyl)-[1,2,4]triazolo[1,5-a]pyrazin-6-yl)-6,7-dihydro-5H-pyrrolo[2,3-d]pyrimidin-5-yl)nicotinonitrile]: 84.1 nM.
The value for `CC1(c2ccc(F)c(Cl)c2)C(=O)Nc2nc(-c3cn4ncnc4c(CCCC(F)(F)F)n3)nc(N)c21` (centres unmarked) [Example 42B, 4-amino-5-(3-chloro-4-fluorophenyl)-5-methyl-2-(8-(4,4,4-trifluorobutyl)-[1,2,4]triazolo[1,5-a]pyrazin-6-yl)-5H-pyrrolo[2,3-d]pyrimidin-6(7H)-one] was 8.7 nM.
For `CC1(c2ccc(Cl)c(F)c2)C(=O)Nc2nc(-c3cn4ncnc4c(CCC(F)(F)F)n3)nc(N)c21` (centres unmarked) [Example 75B, 4-amino-5-(4-chloro-3-fluorophenyl)-5-methyl-2-(8-(3,3,3-trifluoropropyl)-[1,2,4]triazolo[1,5-a]pyrazin-6-yl)-5H-pyrrolo[2,3-d]pyrimidin-6(7H)-one], the EC50 was 20 nM.
The value for `CCCCc1nc(-c2nc(O)c3c(n2)NC(=O)C3(C)c2ccc(Cl)c(F)c2)cn2ncnc12` (centres unmarked) [Example 156B, 2-(8-butyl-[1,2,4]triazolo[1,5-a]pyrazin-6-yl)-5-(4-chloro-3-fluorophenyl)-4-hydroxy-5-methyl-5H-pyrrolo[2,3-d] pyrimidin-6(7H)-one] was 23.3 nM; that for `CC1(c2cccc(F)c2)C(=O)Nc2nc(-c3cn4ncnc4c(CCC(F)(F)C(F)(F)F)n3)nc(O)c21` (centres unmarked) [Example 129B, 5-(3-fluorophenyl)-4-hydroxy-5-methyl-2-(8-(3,3,4,4,4-pentafluorobutyl)-[1,2,4]triazolo[1,5-a]pyrazin-6-yl)-5,7-dihydro-6H-pyrrolo[2,3-d]pyrimidin-6-one] was 51.7 nM.
Next, `CC1(c2ccc(F)c(Cl)c2)C(=O)Nc2nc(-c3cn4ncnc4c(CCCC(F)(F)F)n3)nc(O)c21` (centres unmarked) [Example 147B, 5-(3-chloro-4-fluorophenyl)-4-hydroxy-5-methyl-2-(8-(4,4,4-trifluorobutyl)-[1,2,4]triazolo[1,5-a]pyrazin-6-yl)-5,7-dihydro-6H-pyrrolo[2,3-d]pyrimidin-6-one]: 214 nM; `CCCc1nc(-c2nc(N)c3c(n2)NC(=O)C3(C)c2ccc(Cl)cc2)cn2nc(C)nc12` (centres unmarked) [Example 93A, 4-amino-5-(4-chlorophenyl)-5-methyl-2-(2-methyl-8-propyl-[1,2,4]triazolo[1,5-a]pyrazin-6-yl)-5H-pyrrolo[2,3-d]pyrimidin-6(7H)-one]: 439 nM; `CCCc1nc(-c2nc(O)c3c(n2)NC(=O)[C@@]3(C)c2ccc(F)cc2)cn2ncnc12` [Example 165A, (S)-5-(4-fluorophenyl)-4-hydroxy-5-methyl-2-(8-propyl-[1,2,4]triazolo[1,5-a]pyrazin-6-yl)-5,7-dihydro-6H-pyrrolo[2,3-d]pyrimidin-6-one]: 1520 nM.
The value for `CC1(c2ccc(Cl)cn2)C(=O)Nc2nc(-c3cn4ncnc4c(CCC(F)(F)C(F)(F)F)n3)nc(N)c21` (centres unmarked) [Example 3A, 4-amino-5-(5-chloropyridin-2-yl)-5-methyl-2-(8-(3,3,4,4,4-pentafluorobutyl)-[1,2,4]triazolo[1,5-a]pyrazin-6-yl)-5H-pyrrolo[2,3-d]pyrimidin-6(7H)-one] was 40.4 nM.
For `CCCCc1nc(-c2nc(N)c3c(n2)NC(=O)C3(C)c2ccc(C)cn2)cn2ncnc12` (centres unmarked) [Example 71B, 4-amino-2-(8-butyl-[1,2,4]triazolo[1,5-a]pyrazin-6-yl)-5-methyl-5-(5-methylpyridin-2-yl)-5H-pyrrolo[2,3-d]pyrimidin-6(7H)-one], the EC50 stood at 5.5 nM.
The value for `COc1cccc(Cc2nc(-c3nc(N)c4c(n3)NC(=O)[C@@]4(C)c3ccc(F)cc3)cn3ncnc23)c1` [Example 86B, (S)-4-amino-5-(4-fluorophenyl)-2-(8-(3-methoxybenzyl)-[1,2,4]triazolo[1,5-a]pyrazin-6-yl)-5-methyl-5H-pyrrolo[2,3-d]pyrimidin-6(7H)-one] was 26.4 nM.
The value for `Nc1nc(-c2cn3ncnc3c(CCCC(F)(F)F)n2)nc2c1C(c1ccc(F)c(F)c1)(C1CC1)C(=O)N2` (centres unmarked) [Example 32A, 4-amino-5-cyclopropyl-5-(3,4-difluorophenyl)-2-(8-(4,4,4-trifluorobutyl)-[1,2,4]triazolo[1,5-a]pyrazin-6-yl)-5H-pyrrolo[2,3-d]pyrimidin-6(7H)-one] was 77.4 nM; that for `Nc1nc(-c2cn3ncnc3c(CCCC(F)(F)F)n2)nc2c1C(c1ccc(C(F)(F)F)cc1)(C1CC1)C(=O)N2` (centres unmarked) [Example 35A, 4-amino-5-cyclopropyl-2-(8-(4,4,4-trifluorobutyl)-[1,2,4]triazolo[1,5-a]pyrazin-6-yl)-5-(4-(trifluoromethyl)phenyl)-5H-pyrrolo[2,3-d]pyrimidin-6(7H)-one] was 416 nM.
Next, `Nc1nc(-c2cn3ncnc3c(CCC(F)(F)C(F)(F)F)n2)nc2c1C(c1ccc(C(F)(F)F)cn1)(C1CC1)C(=O)N2` (centres unmarked) [Example 15A, 4-amino-5-cyclopropyl-2-(8-(3,3,4,4,4-pentafluorobutyl)-[1,2,4]triazolo[1,5-a]pyrazin-6-yl)-5-(5-(trifluoromethyl)pyridin-2-yl)-5H-pyrrolo[2,3-d]pyrimidin-6(7H)-one]: 316 nM; `CCCCc1nc(-c2nc(N)c3c(n2)NC(=O)C3(C)c2ccc(Cl)cc2)cn2ncnc12` (centres unmarked) [Example 63A, 4-amino-2-(8-butyl-[1,2,4]triazolo[1,5-a]pyrazin-6-yl)-5-(4-chlorophenyl)-5-methyl-5H-pyrrolo[2,3-d]pyrimidin-6(7H)-one]: 21.9 nM.
For the molecule `CCCc1nc(-c2nc(N)c3c(n2)NC(=O)C3(C)c2ccc(F)cn2)cn2nc(C)nc12` (centres unmarked) [Example 92B, 4-amino-5-(5-fluoropyridin-2-yl)-5-methyl-2-(2-methyl-8-propyl-[1,2,4]triazolo[1,5-a]pyrazin-6-yl)-5H-pyrrolo[2,3-d]pyrimidin-6(7H)-one], the EC50 is 4830 nM.

The values are drawn from patent publication US9822130B2, “Triazolo-pyrazinyl derivatives useful as soluble guanylate cyclase activators” (Merck Sharp & Dohme Corp., priority 2014, dated 2017).
